According to patent US4360665A, “4"-N-(Substituted)-apramycin antibiotic derivatives and intermediates therefor” (Eli Lilly and Company, priority 1981, dated 1982):
Converted amounts (≈) assume the structure as drawn. Like-named read-outs stand apart in the source and are kept apart here.

Experiments:
Assay in all cases: MIC by standard agar dilution test
Assay type in all cases: cell-based
[1] = tested on: Bordetella bronchiseptica 16; settings: Table 1; Bordetella bronchiseptica 16; agar dilution; read-out: Minimum Inhibitory Concentration
Source text: (§1) The antibacterial activity of the antibiotic compounds of this invention is illustrated by the following in vitro and in vivo test data obtained with representative compounds. In Tables I and II, the minimum inhibitory concentration (MIC) for representative compounds against a wide range of gram-positive and gram-negative bacteria are presented. The MIC values were obtained by the standard agar dilution test.

[2] = tested on: Citrobacter freundii CF17; settings: Table 1, read-out: Minimum Inhibitory Concentration
Source text: as §1

[3] = tested on: Enterobacter aerogenes C32; settings: Klebsiella aerogenes, Table 1, read-out: Minimum Inhibitory Concentration
Source text: as §1

[4] = tested on: Enterobacter aerogenes EB17; settings: Klebsiella aerogenes, Table 1, read-out: Minimum Inhibitory Concentration
Source text: as §1

[5] = tested on: Enterobacter aerogenes EB6; settings: Klebsiella aerogenes
Source text: as §1

[6] = tested on: Enterobacter aerogenes X68; settings: Klebsiella aerogenes, Table 1, read-out: Minimum Inhibitory Concentration
Source text: as §1

[7] = tested on: Enterobacter cloacae 265A; settings: Table 1, read-out: Minimum Inhibitory Concentration
Source text: as §1

[8] = tested on: Enterobacter cloacae EB24
Source text: as §1

Enterobacter cloacae EB5 = settings: Table 1, read-out: Minimum Inhibitory Concentration
Source text: as §1

[9] = tested on: Enterobacter cloacae EN453; settings: Table II, read-out: Minimum Inhibitory Concentration
Source text: as §1

Escherichia coli EC14 = settings: Table 1, read-out: Minimum Inhibitory Concentration
Source text: as §1

Escherichia coli N10 = settings: Table 1, read-out: Minimum Inhibitory Concentration
Source text: as §1

Escherichia coli TEM = settings: read-out: Minimum Inhibitory Concentration
Source text: as §1

[10] = tested on: Haemophilus influenzae HOLT; settings: Table 1, read-out: Minimum Inhibitory Concentration
Source text: as §1

[11] = tested on: Haemophilus influenzae R252; settings: Haemophilus influenzae, R252, read-out: Minimum Inhibitory Concentration
Source text: as §1

[12] = tested on: Klebsiella pneumoniae KAE; settings: Table 1, read-out: Minimum Inhibitory Concentration
Source text: as §1

[13] = tested on: Klebsiella pneumoniae KL2; settings: Table II, read-out: Minimum Inhibitory Concentration
Source text: as §1

[14] = tested on: Klebsiella pneumoniae X26; settings: Table 1, read-out: Minimum Inhibitory Concentration
Source text: as §1

Proteus inconstans PR33 = settings: Providencia alcalifaciens, Table 1, read-out: Minimum Inhibitory Concentration
Source text: as §1

Proteus inconstans PV25 = settings: Providencia alcalifaciens, Table II, read-out: Minimum Inhibitory Concentration
Source text: as §1

Proteus morganii PR15 = settings: Morganella morganii, Table 1, read-out: Minimum Inhibitory Concentration
Source text: as §1

Proteus morganii PR1 = settings: Morganella morganii, Table II, read-out: Minimum Inhibitory Concentration
Source text: as §1

Proteus rettgeri C24 = settings: Providencia rettgeri, Table 1, read-out: Minimum Inhibitory Concentration
Source text: as §1

Proteus rettgeri PR2 = settings: Providencia rettgeri, Table II, read-out: Minimum Inhibitory Concentration
Source text: as §1

Proteus rettgeri PR7 = settings: Providencia rettgeri, Table 1, read-out: Minimum Inhibitory Concentration
Source text: as §1

[15] = tested on: Pseudomonas aeruginosa 4276; settings: Table II, read-out: Minimum Inhibitory Concentration
Source text: as §1

[16] = tested on: Pseudomonas aeruginosa PI23; settings: Table II, read-out: Minimum Inhibitory Concentration
Source text: as §1

[17] = tested on: Pseudomonas aeruginosa Ps15; settings: Table II, read-out: Minimum Inhibitory Concentration
Source text: as §1

[18] = tested on: Pseudomonas aeruginosa Ps18; settings: Pseudomonas aeruginosa, PS18, read-out: Minimum Inhibitory Concentration
Source text: as §1

[19] = tested on: Pseudomonas aeruginosa Ps25; settings: Table II, read-out: Minimum Inhibitory Concentration
Source text: as §1

[20] = tested on: Pseudomonas aeruginosa Ps9; settings: Table II, read-out: Minimum Inhibitory Concentration
Source text: as §1

[21] = tested on: Pseudomonas aeruginosa SF-2; settings: SF2, Table II, read-out: Minimum Inhibitory Concentration
Source text: as §1

[22] = tested on: Pseudomonas aeruginosa X239
Source text: as §1

[23] = tested on: Pseudomonas aeruginosa X528
Source text: as §1

[24] = tested on: Salmonella heidelberg X514; settings: Salmonella enterica, Table 1, read-out: Minimum Inhibitory Concentration
Source text: as §1

[25] = tested on: Salmonella typhimurium 1335; settings: Salmonella enterica, Table 1, read-out: Minimum Inhibitory Concentration
Source text: as §1

Serratia marcescens SE2 = settings: Table II, read-out: Minimum Inhibitory Concentration
Source text: as §1

Serratia marcescens SE3 = tested on: Serratia marcescens SE3
Source text: as §1

Serratia marcescens X99 = tested on: Serratia marcescens X99
Source text: as §1

Shigella sonnei N9 = settings: Table 1, read-out: Minimum Inhibitory Concentration
Source text: as §1

[26] = tested on: Staphylococcus aureus S13E; settings: read-out: Minimum Inhibitory Concentration
Source text: as §1

[27] = tested on: Staphylococcus aureus V41; settings: Table 1, read-out: Minimum Inhibitory Concentration
Source text: as §1

[28] = tested on: Staphylococcus aureus X1.1; settings: Table 1, read-out: Minimum Inhibitory Concentration
Source text: as §1

[29] = tested on: Staphylococcus aureus X400; settings: Table 1, read-out: Minimum Inhibitory Concentration
Source text: as §1

[30] = tested on: Staphylococcus epidermidis EPI1; settings: Table 1, read-out: Minimum Inhibitory Concentration
Source text: as §1

[31] = tested on: Staphylococcus epidermidis EPI2; settings: Table 1, read-out: Minimum Inhibitory Concentration
Source text: as §1

[32] = tested on: Streptococcus group D 9960; settings: D9960, Table 1, read-out: Minimum Inhibitory Concentration
Source text: as §1

[33] = tested on: Streptococcus group D X66; settings: DX66, Table 1, read-out: Minimum Inhibitory Concentration
Source text: as §1

[34] = tested on: Streptococcus pneumoniae Park 1; settings: PARK1, Table 1, read-out: Minimum Inhibitory Concentration
Source text: as §1

[35] = tested on: Streptococcus pyogenes C203; settings: Table 1, read-out: Minimum Inhibitory Concentration
Source text: as §1

[36] = tested on: Pseudomonas aeruginosa X48; settings: Table II, read-out: Minimum Inhibitory Concentration
Source text: as §1

[37] = X239, Table II, read-out: Minimum Inhibitory Concentration
[38] = SE3, Table II, read-out: Minimum Inhibitory Concentration
[39] = X99, Table II, read-out: Minimum Inhibitory Concentration

Work on `CCN[C@H]1[C@H](O)[C@@H](O)[C@@H](O[C@H]2O[C@H]3C[C@@H](N)[C@@H](O[C@H]4[C@H](O)[C@@H](O)[C@H](N)C[C@@H]4N)O[C@@H]3[C@H](O)[C@@H]2NC)O[C@@H]1CO` [Test Compound 2, 4"-N-Ethylapramycin] yielded an MIC [1] of 32 µg/mL (≈ 56.4 µM), an MIC [2] of 16 µg/mL (≈ 28.2 µM) and an MIC [3] of 8 µg/mL (≈ 14.1 µM). For the same compound, the MIC [4] was 4 µg/mL (≈ 7.05 µM), the MIC ([5]; EB6, read-out: Minimum Inhibitory Concentration) was 2 µg/mL (≈ 3.52 µM) and the MIC [6] was 8 µg/mL (≈ 14.1 µM). It also gave an MIC [7] of 8 µg/mL (≈ 14.1 µM), an MIC ([8]; Table II, Enterobacter cloacae EB24, agar dilution, read-out: Minimum Inhibitory Concentration) of 4 µg/mL (≈ 7.05 µM) and an MIC (Enterobacter cloacae EB5) of 16 µg/mL (≈ 28.2 µM). For the same compound, the MIC [9] was 4 µg/mL (≈ 7.05 µM), the MIC (Escherichia coli EC14) was 8 µg/mL (≈ 14.1 µM) and the MIC (Escherichia coli N10) was 16 µg/mL (≈ 28.2 µM). The MIC (Escherichia coli TEM) was 4 µg/mL (≈ 7.05 µM), the MIC [10] was 2 µg/mL (≈ 3.52 µM) and the MIC [11] was 1 µg/mL (≈ 1.76 µM). The MIC [12] was 8 µg/mL (≈ 14.1 µM), the MIC [13] was 4 µg/mL (≈ 7.05 µM) and the MIC [14] was 8 µg/mL (≈ 14.1 µM). For the same compound, the MIC (Proteus inconstans PR33) was 4 µg/mL (≈ 7.05 µM), the MIC (Proteus inconstans PV25) was 4 µg/mL (≈ 7.05 µM) and the MIC (Proteus morganii PR15) was 16 µg/mL (≈ 28.2 µM). The MIC (Proteus morganii PR1) was 4 µg/mL (≈ 7.05 µM), the MIC (Proteus rettgeri C24) was 8 µg/mL (≈ 14.1 µM) and the MIC (Proteus rettgeri PR2) was 8 µg/mL (≈ 14.1 µM). For the same compound, the MIC (Proteus rettgeri PR7) was 8 µg/mL (≈ 14.1 µM), the MIC [15] was 8 µg/mL (≈ 14.1 µM) and the MIC [16] was greater than 128 µg/mL. The MIC [17] was 16 µg/mL (≈ 28.2 µM), the MIC [18] was 4 µg/mL (≈ 7.05 µM) and the MIC [19] was 16 µg/mL (≈ 28.2 µM). It also gave an MIC [20] of 64 µg/mL (≈ 113 µM), an MIC [21] of 16 µg/mL (≈ 28.2 µM) and an MIC ([22]; X239, Table 1, read-out: Minimum Inhibitory Concentration) of 16 µg/mL (≈ 28.2 µM). The MIC [22, 37] was 16 µg/mL (≈ 28.2 µM), the MIC ([23]; Table 1, read-out: Minimum Inhibitory Concentration) was 32 µg/mL (≈ 56.4 µM) and the “Minimum Inhibitory Concentration” value ([23]; Table II) was 32 µg/mL. It also gave an MIC [24] of 16 µg/mL (≈ 28.2 µM), an MIC [25] of 16 µg/mL (≈ 28.2 µM) and an MIC (Serratia marcescens SE2) of 4 µg/mL (≈ 7.05 µM). The MIC (Serratia marcescens SE3; SE3, Table 1, read-out: Minimum Inhibitory Concentration) was 16 µg/mL (≈ 28.2 µM), the MIC (Serratia marcescens SE3; [38]) was 4 µg/mL (≈ 7.05 µM) and the MIC (Serratia marcescens X99; X99, Table 1, read-out: Minimum Inhibitory Concentration) was 8 µg/mL (≈ 14.1 µM). It also gave an MIC (Serratia marcescens X99; [39]) of 2 µg/mL (≈ 3.52 µM), an MIC (Shigella sonnei N9) of 16 µg/mL (≈ 28.2 µM) and an MIC [26] of 16 µg/mL (≈ 28.2 µM). For the same compound, the MIC [27] was 16 µg/mL (≈ 28.2 µM), the MIC [28] was 8 µg/mL (≈ 14.1 µM) and the MIC [29] was 32 µg/mL (≈ 56.4 µM). The MIC [30] was 8 µg/mL (≈ 14.1 µM), the MIC [31] was 32 µg/mL (≈ 56.4 µM) and the MIC [32] was greater than 128 µg/mL. For the same compound, the MIC [33] was greater than 128 µg/mL, the MIC [34] was 32 µg/mL (≈ 56.4 µM) and the MIC [35] was 32 µg/mL (≈ 56.4 µM).

With `CN[C@@H]1[C@@H](O[C@H]2O[C@H](CO)[C@@H](NCc3ccccc3)[C@H](O)[C@H]2O)O[C@H]2C[C@@H](N)[C@@H](O[C@H]3[C@H](O)[C@@H](O)[C@H](N)C[C@@H]3N)O[C@@H]2[C@@H]1O` [Test Compound 3, 4"-N-Benzylapramycin] the MIC ([5]; Table II, Enterobacter aerogenes EB6, agar dilution, read-out: Minimum Inhibitory Concentration) was 8 µg/mL (≈ 12.7 µM), the MIC ([8]; Enterobacter cloacae, EB24, read-out: Minimum Inhibitory Concentration) was 4 µg/mL (≈ 6.35 µM) and the MIC [9] was 8 µg/mL (≈ 12.7 µM). For the same compound, the MIC [13] was 8 µg/mL (≈ 12.7 µM), the MIC (Proteus inconstans PV25) was 64 µg/mL (≈ 102 µM) and the MIC (Proteus morganii PR1) was 32 µg/mL (≈ 50.8 µM). For the same compound, the MIC (Proteus rettgeri PR2) was greater than 128 µg/mL, the MIC [15] was greater than 128 µg/mL and the MIC [16] was greater than 128 µg/mL. For the same compound, the MIC [17] was 128 µg/mL (≈ 203 µM), the MIC [19] was 64 µg/mL (≈ 102 µM) and the MIC [20] was greater than 128 µg/mL. For the same compound, the MIC [21] was 128 µg/mL (≈ 203 µM), the MIC [22, 37] was 128 µg/mL (≈ 203 µM) and the MIC [36] was greater than 128 µg/mL. For the same compound, the MIC ([23]; Table II, read-out: Minimum Inhibitory Concentration) was greater than 128 µg/mL, the MIC (Serratia marcescens SE2) was 16 µg/mL (≈ 25.4 µM) and the MIC (Serratia marcescens SE3; [38]) was 8 µg/mL (≈ 12.7 µM). For the same compound, the MIC (Serratia marcescens X99; [39]) was 4 µg/mL (≈ 6.35 µM).
